# Patent US20090099195A1 (ASTRAZENECA AB, priority 2007, published 2009)
# Key:
# [1] = biological target: T1, hP2X3 (human Purinergic P2X receptors subtype 3), clone B (Homo sapiens, UniProt P56373); test: hP2X3 FLIPR calcium (Fluo-4) antagonist assay, clone B; settings: Human P2X3 FLIPR Clone B IC50 (nM), RLE cells expressing hP2X3 clone B (NM_002559); agonist 500 nM α,β-methylene-ATP
# T1 sequence (P56373 1-397): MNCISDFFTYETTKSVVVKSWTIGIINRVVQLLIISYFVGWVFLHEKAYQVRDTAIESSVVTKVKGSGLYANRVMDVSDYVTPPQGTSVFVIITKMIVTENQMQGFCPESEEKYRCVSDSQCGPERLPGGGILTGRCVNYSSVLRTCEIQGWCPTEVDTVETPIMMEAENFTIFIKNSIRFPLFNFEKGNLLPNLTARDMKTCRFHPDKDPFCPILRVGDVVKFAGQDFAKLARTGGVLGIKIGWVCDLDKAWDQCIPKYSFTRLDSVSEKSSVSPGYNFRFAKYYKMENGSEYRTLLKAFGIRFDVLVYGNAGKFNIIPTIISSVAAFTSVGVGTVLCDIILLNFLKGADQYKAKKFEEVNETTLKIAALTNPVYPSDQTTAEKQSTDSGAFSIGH
# [2] = biological target: T2, rat P2X2/3 (rat P2X3 co-expressed with rat P2X2) (Rattus norvegicus, UniProt P49653+P49654); test: rat P2X2/3 FLIPR calcium (Fluo-4) antagonist assay; settings: Rat P2X2/3 FLIPR Mean IC50 (nM), HEK-TREX cells, tetracycline-induced rat P2X3 with constitutive rat P2X2; agonist 500 nM α,β-methylene-ATP
# T2 sequence (P49654 1-397): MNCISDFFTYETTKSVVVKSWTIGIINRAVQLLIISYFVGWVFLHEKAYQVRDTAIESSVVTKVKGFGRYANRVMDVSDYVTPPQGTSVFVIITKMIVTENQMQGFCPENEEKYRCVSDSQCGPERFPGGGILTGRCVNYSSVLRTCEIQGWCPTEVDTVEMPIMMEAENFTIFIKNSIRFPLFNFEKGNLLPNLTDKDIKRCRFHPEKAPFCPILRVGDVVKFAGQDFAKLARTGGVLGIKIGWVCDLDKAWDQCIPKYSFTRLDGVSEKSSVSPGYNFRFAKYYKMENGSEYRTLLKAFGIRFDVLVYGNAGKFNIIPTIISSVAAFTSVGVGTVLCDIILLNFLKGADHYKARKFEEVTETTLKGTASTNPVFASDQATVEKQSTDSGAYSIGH
# T2 sequence (P49653 1-472): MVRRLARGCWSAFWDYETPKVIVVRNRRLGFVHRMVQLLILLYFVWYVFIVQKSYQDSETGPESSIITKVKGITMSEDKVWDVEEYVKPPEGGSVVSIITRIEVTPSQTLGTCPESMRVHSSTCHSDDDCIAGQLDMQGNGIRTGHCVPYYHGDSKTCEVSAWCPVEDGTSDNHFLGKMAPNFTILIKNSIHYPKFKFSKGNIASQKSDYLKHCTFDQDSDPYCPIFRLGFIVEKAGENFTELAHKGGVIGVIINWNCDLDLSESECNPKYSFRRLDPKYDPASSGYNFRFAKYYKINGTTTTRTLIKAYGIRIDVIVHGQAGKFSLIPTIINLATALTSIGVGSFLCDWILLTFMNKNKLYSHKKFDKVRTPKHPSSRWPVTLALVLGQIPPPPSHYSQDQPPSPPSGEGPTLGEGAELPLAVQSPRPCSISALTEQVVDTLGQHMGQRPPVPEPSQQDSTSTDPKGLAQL
# Description: The assay used a calcium indicator dye (Fluo-4) that emits fluorescence, the intensity of which is related to the concentration of calcium that entered the cell when P2X3 was activated and the channel opened. Activation of hP2X3 or rat P2X3 and rat P2X2/3 (from the coexpression of rat P2X3 and rat P2×2) is elicited the by P2X3 agonist α,β methylene-ATP (Sigma M6517), and the resulting fluorescence is measured with a FLIPR II™ instrument (Molecular Devices). Compounds are tested for their ability to inhibit the agonist-induced fluorescent signal.
# For the rat P2X2/3 HEK-TREX cells, induction of the rat P2X3 expression is used to generate the rat P2X2/3 channels in HEK-TREX cells and performed by addition of 1 μg/mL tetracycline (Invitrogen) 24 h prior to compounds testing to the HEK-TREX expressing the rat P2X2 constitutively. On the day of the experiment, the cells and test compounds are prepared as follows. […] After preparing the compounds, the medium is removed from the cell plates by inversion. A loading solution of 30 μL assay buffer containing 4 μM of the calcium indicator dye FLUO-4 AM (Molecular Probes F14202) is added to each well using a Multidrop (Labsystems). […] The incubation is terminated by washing the cells four times in assay buffer using a Skatron Embla (Molecular Devices), and 25 μL of assay buffer was left in each well. Cell plates are then transferred to the FLIPR. Experiments are initiated by measuring a baseline fluorescence reading for 10 seconds, followed by the addition of 12.5 μL of cpds and data sampling for a total 280 seconds. The experiments are terminated by addition of 12.5 μL of a reference agonist (500 nM α,β-methylene-ATP) or buffer, producing a final assay volume of 50 μL followed by data sampling for an additional 280 seconds.
# In P2X3 antagonist experiments (human and rat assays) data are analysed as normalised maximal peak fluorescence monitored following agonist addition and calculated as percent of relative fluorescent counts from control agonist. The dose-response antagonist inhibition curves are analyzed in a 4-parameter sigmoidal fit using a non-linear curve-fitting program (XLfit version 5.0.6, ID Business Solutions Limited, Guildford, UK).
# [3] = biological target: T3, hP2X3 (human Purinergic P2X receptors subtype 3), clone A (Homo sapiens, UniProt P56373); test: hP2X3 FLIPR calcium (Fluo-4) antagonist assay, clone A; settings: Human P2X3 FLIPR Clone A Mean IC50 (nM), RLE cells expressing hP2X3 clone A (AB016608); agonist 500 nM α,β-methylene-ATP
# T3 sequence (P56373 1-397): T1 sequence (P56373 1-397)
IC50 [1] [nM],IC50 [2] [nM],IC50 [3] [nM],SMILES
340,9910,–,"CC(=O)N1CCN(c2nc3c(c(N4CCCC4c4cc(C)cc(C)c4)n2)CN(C(C)C)C3=O)CC1 (centres unmarked) [Example 270, 4-(4-acetylpiperazin-1-yl)-2-[2-(3,5-dimethylphenyl)pyrrolidin-1-yl]-8-propan-2-yl-3,5,8-triazabicyclo[4.3.0]nona-2,4,10-trien-7-one]"
270,12900,–,"CCOc1ccc(C2CCCN2c2nc(N3CCN(C(C)=O)CC3)nc3c2CN(C(C)C)C3=O)cc1 (centres unmarked) [Example 272, 4-(4-acetylpiperazin-1-yl)-2-[2-(4-ethoxyphenyl)pyrrolidin-1-yl]-8-propan-2-yl-3,5,8-triazabicyclo[4.3.0]nona-2,4,10-trien-7-one]"
1400,–,1190,"CC(=O)N1CCN(c2nc3c(c(N4CCCC4c4ccc(C)cc4)n2)CN(C(C)C)C3=O)CC1 (centres unmarked) [Example 296, 2-(4-acetylpiperazin-1-yl)-6-(1-methylethyl)-4-[2-(4-methylphenyl)pyrrolidin-1-yl]-5,6-dihydro-7H-pyrrolo[3,4-d]pyrimidin-7-one]"
41,–,43,"CCC(C)N1Cc2c(nc(N3CCN(C(C)=O)CC3)nc2N(CC)Cc2cc3ccccc3cn2)C1=O (single isomer, unassigned) [Example 318, 2-(4-acetylpiperazin-1-yl)-4-[ethyl(isoquinolin-3-ylmethyl)amino]-6-(1-methylpropyl)-5,6-dihydro-7H-pyrrolo[3,4-d]pyrimidin-7-one]"
3600,–,4950,"CC(=O)N1CCN(c2nc3c(c(N4CCCC4c4ccc(F)cc4)n2)CN(C(C)C)C3=O)CC1 (centres unmarked) [Example 292, 2-(4-acetylpiperazin-1-yl)-4-[2-(4-fluorophenyl)pyrrolidin-1-yl]-6-(1-methylethyl)-5,6-dihydro-7H-pyrrolo[3,4-d]pyrimidin-7-one]"
94,–,85,"CC(=O)N1CCN(c2nc3c(c(N(C)Cc4cc5ccccc5c(C)n4)n2)CN(C(C)C)C3=O)CC1 [Example 263, 2-(4-acetylpiperazin-1-yl)-6-isopropyl-4-(methyl((1-methylisoquinolin-3-yl)methyl)amino)-5H-pyrrolo[3,4-d]pyrimidin-7(6H)-one]"
980,–,1840,"CC(=O)c1ccc(CC2CCCN2c2nc(N3CCN(C(C)=O)CC3)nc3c2CN(C(C)C)C3=O)cc1 (centres unmarked) [Example 294, 4-[2-(4-acetylbenzyl)pyrrolidin-1-yl]-2-(4-acetylpiperazin-1-yl)-6-(1-methylethyl)-5,6-dihydro-7H-pyrrolo[3,4-d]pyrimidin-7-one]"
3300,–,1940,"CC(=O)N1CCN(c2nc(N[C@H](C)c3ccc(C#N)cc3)c3c(n2)C(=O)N(C(C)C)C3)CC1 [Example 351, (R)-4-(1-(2-(4-acetylpiperazin-1-yl)-6-isopropyl-7-oxo-6,7-dihydro-5H-pyrrolo[3,4-d]pyrimidin-4-ylamino)ethyl)benzonitrile]"

# The remaining lines, values behind:
SMILES,IC50 [1] [nM],IC50 [2] [nM],IC50 [3] [nM]
"CC(C)N1Cc2c(NC3c4cccnc4CCc4c(F)cccc43)nc(N(C)CCN(C)C)nc2C1=O (centres unmarked) [Example 121, 2-[[2-(dimethylamino)ethyl](methyl)amino]-4-[(9-fluoro-10,11-dihydro-5H-benzo[4,5]cyclohepta[1,2-b]pyridin-5-yl)amino]-6-isopropyl-5,6-dihydro-7H-pyrrolo[3,4-d]pyrimidin-7-one]",150,4580,–
"CC(=O)N1CCN(c2nc(NCc3cnn(-c4ccccc4)c3)c3c(n2)C(=O)N(C(C)C)C3)CC1 [Example 146, 4-(4-acetylpiperazin-1-yl)-2-[(1-phenylpyrazol-4-yl)methylamino]-8-propan-2-yl-3,5,8-triazabicyclo[4.3.0]nona-1,3,5-trien-7-one]",67,2440,–
"CC(=O)N1CCN(c2nc(N[C@H](C)c3ccc(I)cc3)c3c(n2)C(=O)N(C(C)C)C3)CC1 [Example 165, (R)-2-(4-acetylpiperazin-1-yl)-4-(1-(4-iodophenyl)ethylamino)-6-isopropyl-5H-pyrrolo[3,4-d]pyrimidin-7(6H)-one]",43,11100,–
"CC(C)N1Cc2c(NC(C)(C)Cc3ccc(F)cc3)nc(N3CCN4C(=O)OC[C@H]4C3)nc2C1=O [Example 140, (R)-7-{4-[2-(4-Fluoro-phenyl)-1,1-dimethyl-ethylamino]-6-isopropyl-7-oxo-6,7-dihydro-5H-pyrrolo[3,4-d]pyrimidin-2-yl}-hexahydro-oxazolo[3,4-a]pyrazin-3-one]",1100,8470,–
"CC(=O)N1CCN(c2nc(NCc3cnc4ccccc4c3)c3c(n2)C(=O)N(C(C)C)C3)CC1C (centres unmarked) [Example 142, 2-(4-Acetyl-3-methyl-piperazin-1-yl)-6-isopropyl-4-[(quinolin-3-ylmethyl)amino]-5,6-dihydro-pyrrolo[3,4-d]pyrimidin-7-one]",57,7550,–
"CC(C)N1Cc2c(NC(C)(C)Cc3ccc(F)cc3)nc(N3CCN4C(=O)CCC4C3)nc2C1=O (centres unmarked) [Example 134, 4-(1-(4-Fluorophenyl)-2-methylpropan-2-ylamino)-6-isopropyl-2-(6-oxohexahydro[1,2-a]pyrazin-2(1H)-yl)-5H-pyrrolo[3,4-d]pyrimidin-7(6H)-one]",490,49800,–
"COc1cc(OC(F)(F)F)ccc1CNc1nc(N2CCN(C(C)=O)CC2)nc2c1CN(C(C)C)C2=O [Example 232, 2-(4-acetylpiperazin-1-yl)-6-isopropyl-4-(2-methoxy-4-(trifluoromethoxy)benzylamino)-5H-pyrrolo[3,4-d]pyrimidin-7(6H)-one]",–,7840,–
"CC(=O)N1CCN(c2nc(N[C@H](C)c3ccc(F)c(C(F)(F)F)c3)c3c(n2)C(=O)N(C(C)C)C3)CC1 [Example 188, (R)-2-(4-acetylpiperazin-1-yl)-4-(1-(4-fluoro-3-(trifluoromethyl)phenyl)ethylamino)-6-isopropyl-5H-pyrrolo[3,4-d]pyrimidin-7(6H)-one]",140,–,174
"CC(=O)N1CCN(c2nc(N[C@H](C)c3ccc(OC4CCC4)cc3)c3c(n2)C(=O)N(C(C)C)C3)CC1 [Example 191, (R)-2-(4-acetylpiperazin-1-yl)-4-(1-(4-cyclobutoxyphenyl)ethylamino)-6-isopropyl-5H-pyrrolo[3,4-d]pyrimidin-7(6H)-one]",62,–,81.3
"CC(=O)N1CCN(c2nc(N[C@H](C)c3cc(F)cc(C(F)(F)F)c3)c3c(n2)C(=O)N(C(C)C)C3)CC1 [Example 184, (R)-2-(4-acetylpiperazin-1-yl)-4-(1-(3-fluoro-5-(trifluoromethyl)phenyl)ethylamino)-6-isopropyl-5H-pyrrolo[3,4-d]pyrimidin-7(6H)-one]",87,–,101
"CC(=O)N1CCN(c2nc(N[C@H](C)c3ccc(C(F)(F)F)cc3F)c3c(n2)C(=O)N(C(C)C)C3)CC1 [Example 186, (R)-2-(4-acetylpiperazin-1-yl)-4-(1-(2-fluoro-4-(trifluoromethyl)phenyl)ethylamino)-6-isopropyl-5H-pyrrolo[3,4-d]pyrimidin-7(6H)-one]",100,–,138
"CC(=O)N1CCN(c2nc(NC(c3ccccc3)c3ccccc3)c3c(n2)C(=O)N(C(C)C)C3)CC1 [Example 72, 2-(4-Acetyl-piperazin-1-yl)-4-(benzhydryl-amino)-6-isopropyl-5,6-dihydro-pyrrolo[3,4-d]pyrimidin-7-one]",–,2110,–
